{"source": "paper PMC7999182", "about": "“Interaction of Remdesivir with Clinically Relevant Hepatic Drug Uptake Transporters” (Pharmaceutics, 2021)", "key": {"OATP2B1 [1]": {"target": "T1, OATP2B1 (Homo sapiens, UniProt O94956)", "T1 construct": "expressed in transfected cells", "T1 sequence (O94956 1-709)": "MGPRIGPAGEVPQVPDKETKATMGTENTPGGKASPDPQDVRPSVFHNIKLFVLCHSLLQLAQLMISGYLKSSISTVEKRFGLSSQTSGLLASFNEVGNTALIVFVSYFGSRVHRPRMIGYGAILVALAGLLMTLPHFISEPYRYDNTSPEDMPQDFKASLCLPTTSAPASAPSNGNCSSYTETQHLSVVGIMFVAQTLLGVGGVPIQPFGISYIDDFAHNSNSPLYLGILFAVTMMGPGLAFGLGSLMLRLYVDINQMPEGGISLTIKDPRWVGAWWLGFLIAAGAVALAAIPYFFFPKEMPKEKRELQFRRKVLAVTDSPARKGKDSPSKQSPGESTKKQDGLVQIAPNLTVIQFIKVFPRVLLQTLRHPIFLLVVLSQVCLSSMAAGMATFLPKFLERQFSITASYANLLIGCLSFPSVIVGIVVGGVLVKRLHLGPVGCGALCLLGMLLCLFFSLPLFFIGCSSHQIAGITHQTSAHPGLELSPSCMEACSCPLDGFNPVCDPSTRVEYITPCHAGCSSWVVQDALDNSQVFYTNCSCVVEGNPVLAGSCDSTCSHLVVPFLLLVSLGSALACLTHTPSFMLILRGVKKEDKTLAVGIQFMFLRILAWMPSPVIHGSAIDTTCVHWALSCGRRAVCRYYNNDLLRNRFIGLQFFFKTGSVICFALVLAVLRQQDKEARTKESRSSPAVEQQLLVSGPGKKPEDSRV", "assay": "Remdesivir uptake into HEK cells stably expressing OATP2B1 vs vector control", "type": "in vitro ADME", "conditions": "5 µM remdesivir, 10 min, transporter-expressing vs control HEK cells", "text": "(§1) Generation, cultivation and characterization of human embryonic kidney (HEK) cells stably expressing OATP1B1 refseq (=OATP1B1*1a), OATP1B1*1b, OATP1B1*5 and OATP1B1*15 [18], OATP1B3 [19], OATP2B1 [13] and OCT1 [20] have been described previously. OATP1B1 cells were cultivated in minimal essential medium (Life Technologies, Paisley, UK) and OATP1B3, OATP2B1 and OCT1 cells were cultivated in Dulbecco’s modified Eagle medium (Sigma, Darmstadt, Germany). Cultivation media were supplemented with 10% fetal calf serum, 100 U/mL penicillin and 100 µg/mL streptomycin. Cells were grown at 37 °C and 5% CO2. Functionality of the cells was confirmed by measuring uptake of prototypic substrates (see Section 2.3 and supplementary material).\n(§2) Uptake assays were conducted at 37 °C according to previously described methods. For this, cells were seeded in 24-well plates (320,000 cells/well) and cultured for 2 days. Cells were then incubated for a further 24 h in culture medium with 5 mM butyrate (OATP1B3, OATP2B1, OCT1) or 10 mM butyrate (OATP1B1) to increase protein levels of recombinant transporters. […]\n(§3) Remdesivir was determined by UHPLC-MS-MS analysis on an Agilent 1290 infinity UHPLC system coupled to an Agilent 6495B triple quadrupole mass spectrometer (Agilent, Waldbronn, Germany) similar to a recently published method. […]"}, "OATP2B1 [2]": {"tested_on": "OATP2B1", "parameters": "method as in PMID 33435273", "conditions": "pyranine transport; cited from earlier work"}, "OATP1B1*1b": {"target": "T2, OATP1B1*1b (Homo sapiens, UniProt Q9Y6L6, N130D)", "T2 construct": "expressed in transfected cells", "T2 sequence (Q9Y6L6 1-691 N130D)": "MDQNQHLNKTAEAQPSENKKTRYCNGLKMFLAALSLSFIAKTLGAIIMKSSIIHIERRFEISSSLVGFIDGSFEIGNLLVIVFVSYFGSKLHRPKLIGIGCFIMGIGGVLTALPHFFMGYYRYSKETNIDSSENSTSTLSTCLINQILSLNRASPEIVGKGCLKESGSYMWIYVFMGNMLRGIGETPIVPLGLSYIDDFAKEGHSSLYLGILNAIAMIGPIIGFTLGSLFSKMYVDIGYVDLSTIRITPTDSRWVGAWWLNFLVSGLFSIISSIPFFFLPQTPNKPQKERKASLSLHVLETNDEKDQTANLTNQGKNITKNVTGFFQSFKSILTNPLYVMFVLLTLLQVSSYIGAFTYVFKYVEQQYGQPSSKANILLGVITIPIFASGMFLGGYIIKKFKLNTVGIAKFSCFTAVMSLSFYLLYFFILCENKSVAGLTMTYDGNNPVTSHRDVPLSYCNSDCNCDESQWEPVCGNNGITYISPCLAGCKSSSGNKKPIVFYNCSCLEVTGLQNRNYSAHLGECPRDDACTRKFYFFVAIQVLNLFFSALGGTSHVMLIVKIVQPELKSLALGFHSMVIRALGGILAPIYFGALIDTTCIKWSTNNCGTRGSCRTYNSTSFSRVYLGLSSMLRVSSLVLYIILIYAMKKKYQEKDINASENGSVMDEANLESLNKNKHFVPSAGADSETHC", "assay": "Remdesivir uptake into HEK cells stably expressing OATP1B1*1b vs vector control", "type": "in vitro ADME", "conditions": "10 min", "text": "as §1, §2, §3"}}}
{"smiles": "CCC(CC)COC(=O)[C@H](C)N[P@](=O)(OC[C@H]1O[C@@](C#N)(c2ccc3c(N)ncnn23)[C@H](O)[C@@H]1O)Oc1ccccc1", "note": "[Remdesivir]", "values": [{"measurement": "Remdesivir uptake ratio", "setting": "OATP2B1 [1]", "result": 1.4}, {"measurement": "IC50", "setting": "OATP2B1 [2]", "result": 3.8, "unit": "µM"}, {"measurement": "Accumulation vs vector-transfected control cells", "setting": "OATP1B1*1b; 5 µM remdesivir", "result": "moderately higher"}, {"measurement": "Accumulation vs vector-transfected control cells", "setting": "OATP1B1*1b; 50 µM remdesivir", "result": "moderately higher"}]}
